# Results published in patent publication US6479469B2, “Treatment of arthritis and compositions therefore” (priority 2000, dated 2002).
# “Also recorded” adds a separate entry of the source.
# Tests used:
# [1] = test system: chondrocytes (BAC); assay: BAC growth assay (chondrocyte cell proliferation, Coulter count); type: cell-based, bovine; conditions: for effect on cell growth: 0-6 mM, serum 20%, FIG. 10; for effect on cell growth / effect on the proliferation of chondrocytes: BAC subculture 6; for effect on the proliferation of chondrocytes: 1 mg/ml, glucose 0.5 mg/ml, TGF-β 10 μg/ml, serum 10%, FIG. 8
# Description: Cartilage slices were removed aseptically from bovine knee joint and digested with collagenase to obtain single cell chondrocytes. Both primary cultures and subcultures were established by procedures described previously (Chan C. and Anastassiades T., Biochem Cell Biol 74:233-240, 1996; Howard S. and Anastassiades T., J Rheumatol 20:2083-2094, 1993).For the growth assays, cells were seeded at 15,000 cells/well and 33,000 cells/well for the 24 and 6 well plates, respectively, in glucose free Dulbecco's modified Eagle's culture medium, base which was supplemented with glucose (1 mg/ml) and serum (10%). These cells were incubated in a humidified atmosphere of 95% air and 5% carbon dioxide at 37° C. On the following day, the medium was changed to fresh medium containing test materials of interest. The cells were harvested at time intervals and cell number determined using Coulter counter (Coulter Electronics Inc. Florida, USA). Results are expressed as the means of three replicate wells and each well was counted twice. The data are presented as mean ± SEM.
# Initial studies examined the effect of 1 mg/ml of GlcN, GlcNac, GlcNpr and GlcNbu on the proliferation of chondrocytes (BAC subculture 6) maintained in medium supplemented with glucose (0.5 mg/ml), TGF-β (10 μg/ml) and serum (10%). […] The cells barely thrive at serum concentrations lower than 10% (data not shown).
# Further experiments were carried out to determine whether the growth stimulation could be due to butyrate group or a mechanism solely dependent on GlcNbu. In this case, chondrocytes (BAC subculture 6) were maintained in culture in the presence of glucose (1 mg/ml), serum (20%) and various concentrations (0-6 mM) of sodium butyrate, GlcNbu and GlcN. […] Therefore, the growth stimulation observed is due to GlcNbu. The effect of GlcNbu at varying glucose medium concentrations (0-0.5 mg/ml) were evaluated using early and late subcultured chondrocytes.
# [2] = test system: bovine chondrocytes; conditions: in vitro; cited from earlier work
# [3] = test system: experimentally induced inflammatory arthritis in Lewis rats; assay: Streptococcal cell wall induced inflammatory arthritis model, clinical assessment of hind legs; type: in vivo, rat; conditions: 18 days
# Description: The experimental arthritis was induced by injecting cell walls of streptococcal bateria intra-peritoneally into Lewis rats. The resulting arthritis leads to cartilage and bone destruction in the injected rat. This experimental model is considered to provide some of the most useful insights in the development of human inflammatory, destructive arthropathies.
# Method: Inflammatory arthritis was induced in Lewis strain rats by a single intra-peritoneal injection of the streptococcal wall pepti-polysaccharide antigen, as described in Brahn E. “Animal models of rheumatoid arthritis. Clues to etiology and treatment.” Clin Orthop. 1991 Apr; (265): 42-53. Review. Van den Broek M F, van Bruggen M C, Simpson S A, Severijnen A J, van de Putte L B, van den Berg W B. “Flare-up reaction of streptococcal cell wall induced arthritis in Lewis and F344 rats: the role of T lymphocytes.” Clin Exp Immunol. 1990 Feb; 79 (2): 297-306. Chen W., Jin W, Cook M, Weiner H L, Wahl S M. “Oral delivery of group A streptococcal cell walls augments circulating TGF-beta and suppresses streptococcal cell wall arthritis.” J Immunol. 1998 Dec. 1; 161 (11): 6297-304. On the same day as the injection, the rats had their drinking water supplemented either with 5 mg or 50 mg of GlcN or GlcNBu in 400 ml of water. There were three rats in each of the above groups. The rats drank the water containing the above compounds in an unrestricted fashion. The drinking water was replenished, when finished, so that the rats drank the same concentrations of the compounds throughout the experimental observation period. Each animal consumed approximately between 20-30 ml of water each day for each of the groups. After 18 days of experimental observation, the rats' hind legs were visually inspected for clinical assessment of the development of arthritis.
# [4] = humans, cited from earlier work
# [5] = test system: dog with hip dysplasia; assay: Dog Study-2, dog with hip dysplasia, daily journal and video record; type: in vivo; conditions: 500 mg per day on food, one week
# Description: 1 Week administration to arthritic/dysplastic dogs @ 500 mg set daily dose. Daily Journal and Video record was kept as described under Dog Study-1.
# The subject was a 16-year-old female labrador crossbreed which had hip dysplasia evident in both hind limbs due to either age or an injury sustained at the age of 9 years.
# Phase 1 The MGD was administered at 500 mg per day for a period of one week in a solution poured onto food.
# [6] = test system: Bovine Articular Chondrocytes; assay: Glycosaminoglycan synthesis by Bovine Articular Chondrocytes (35S incorporation); type: cell-based; conditions: 0.1 mM GlcNBu; 35S label 4 days; per well; control 82,000 CPM; FIG. 14
# Description: Bovine articular chondrocytes were grown to confluency in 35 mm wells and labelled with ^35S for 4 days in the presence of different concentrations of GlcNBu. The Glycosaminoglycans (GAG) were isolated from the medium and the radioactivity incorporated into the isolated GAG was determined
# With reference to FIG. 14, the results are expressed on a per well basis and represent the means and standard deviations from four replicate wells. […] The control (0 mM concentration of GlcNBu) is the first point on the left indicating 82,000 CPM and the lowest concentration of GlcNBu is 0.1 mM indicating 112,000 CPM.
# [7] = test system: mucopolysaccharides (glycosaminoglycans); conditions: Biochem. Pharmacol. (1973) 22:3018; cited from earlier work
# [8] = test system: dog with osteoarthritis due to anterior cruciate ligament injury; assay: Dog Study-1, osteoarthritic dog, daily journal and video record; type: in vivo
# Description: 1 Week administration to arthritic/dysplastic dogs @500 mg set daily dose. A Daily Journal and Video record was kept.
# The subject was a 9-year-old female collie crossbreed which had osteoarthritis due to a prior left anterior cruciate ligament injury (a previous tear now repaired). […] The animal is currently medicated with glucosamine at 500 mg per day.
# For both Phase 1 and Phase 2 a video diary of a few minutes of two or three of the animal's exercise periods and a daily journal of casual observations was kept.
Compound,effect on cell growth ([1]; glucose 1 mg/ml),effect on the proliferation of chondrocytes [1],clinical assessment of arthritis in hind legs ([3]; 5 mg in 400 ml drinking water),clinical assessment of arthritis in hind legs ([3]; 50 mg in 400 ml drinking water),owner-observed mobility / behaviour [5],other results
"N[C@@H](C=O)[C@@H](O)[C@H](O)[C@H](O)CO [GlcN, 2-amino-2-deoxy-D-glucose, reference compound]",decreased cell growth,inhibited cell growth compared to control,well-developed arthritis with swelling and redness in both of the hind lower legs,well-developed arthritis with swelling and redness in the right lower leg and less so in the left lower leg,,growth or survival of chondrocytes [2]: does not support growth or even survival of chondrocytes; serum levels after oral or IV administration ([4]; very large doses): serum levels cannot be detected
"CC(=O)N[C@H]1C(O)O[C@H](CO)[C@@H](O)[C@@H]1O (stereo partly drawn) [GlcNac, N-acetylglucosamine, reference compound]",,much reduced effect on cell growth,,,,half-life compared to glucosamine ([4]; Clin. Ther. (1996) 18:1184): longer half-life
"CCCC(=O)N[C@H]1C(O)O[C@H](CO)[C@@H](O)[C@@H]1O (stereo partly drawn) [GlcNbu, N-Butyryl-D-glucosamine (2-n-Butanamido-2-deoxy-D-glucopyranose)]",increased cell growth,significantly stimulated cell growth,normal hind lower legs and no clinical evidence of arthritis,minimal swelling in the right lower leg and probably a normal left lower leg,a period of improvement,"cell growth at various serum concentrations ([1]; GlcNbu 0.4-10 mM, glucose 1 mg/ml, 10% vs 20% serum, FIG. 9): more increase in cell growth at 20% than 10% serum; stimulation of cell growth at varying glucose medium concentrations ([1]; glucose 0-0.5 mg/ml, early and late subcultured chondrocytes, FIGS. 11 and 12): higher in the absence of glucose or very low glucose concentration; radioactivity incorporated into the GAG [6]: 112,000 CPM"
"CCC(=O)N[C@H]1C(O)O[C@H](CO)[C@@H](O)[C@@H]1O (stereo partly drawn) [GlcNpr, N-propionylglucosamine]",,much reduced effect on cell growth,,,,incorporation of labeled glucosamine into mucopolysaccharides [7]: inhibits the incorporation of labeled glucosamine into mucopolysaccharides
"CCCC(=O)[O-].[Na+] [sodium butyrate, reference compound]",decreased cell growth,,,,,
N-Butyryl-D-glucosamine (2-n-Butanamido-2-deoxy-D-glucopyranose) [GlcNbu],,,,,isolated examples of improvement,"tolerability ([8]; 500 mg per day on food, one week): tolerated at least at the same level as glucosamine; adverse reactions ([8]; 500 mg per day, one week): no adverse reactions were observed; protective effects (mobility/stiffness) compared to glucosamine ([8]; Phase 1, 500 mg per day, one week, listed as MGD): at least as good as glucosamine; also recorded: no appreciable difference from baseline; observation after withdrawal ([8]; Phase 2, Day 7 after MGD discontinued, listed as MGD): recurrence of a slight limp; also recorded: much stiffer gait and a slight limp"
